Reference: the supplement of paper PMC10733146

How the values were obtained:
Assay in all cases: viability relative to DMSO control (fraction); higher = less drug effect (more viable cells)
Settings in all cases: 48 h
[1] = test system: primary AML patient cells (S055)
Outline: (§1)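 Primary mononuclear tumour cells (Ficoll-isolated from blood or bone marrow, or processed lymph node; fresh or cryopreserved) were plated at 4 × 10^4 cells per well in 384-well plates with pre-plated compounds at five concentrations, one well each. Medium was RPMI-1640 with penicillin/streptomycin, L-glutamine and human serum, at 37 °C and 5% CO2 for 48 h. Viability was read as CellTiter-Glo luminescence relative to the median of 16 inner DMSO wells.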

[2] = test system: primary AML patient cells (S037)
Outline: as §1

[3] = test system: primary AML patient cells (S089)
Outline: as §1

[4] = test system: primary AML patient cells (S019)
Outline: as §1

[5] = test system: primary AML patient cells (S081)
Outline: as §1

[6] = test system: primary T-PLL patient cells (S008)
Outline: as §1

[7] = test system: primary ALL patient cells (S048)
Outline: as §1

[8] = test system: primary MCL patient cells (S068)
Outline: as §1

[9] = test system: primary FL patient cells (S022)
Outline: as §1

[10] = test system: primary AML patient cells (S025)
Outline: as §1

[11] = test system: primary AML patient cells (S002)
Outline: as §1

[12] = test system: primary AML patient cells (S091)
Outline: as §1

[13] = test system: primary AML patient cells (S011)
Outline: as §1

[14] = test system: primary AML patient cells (S021)
Outline: as §1

**Q.** Which viability ([1]; 0.024 µM) does the source give for `CNC(=O)c1cc(Oc2ccc(NC(=O)Nc3ccc(Cl)c(C(F)(F)F)c3)cc2)ccn1` [Sorafenib] here?
**A.** 0.971

**Q.** And the viability ([1]; 0.12 µM)?
**A.** 1.04

**Q.** What about the viability ([1]; 0.6 µM) of the same compound?
**A.** 1.02

**Q.** What about the viability ([1]; 3 µM) of the same compound?
**A.** 1.08

**Q.** What about the viability ([1]; 15 µM) of the same compound?
**A.** 1.04

**Q.** And the viability ([2]; 0.024 µM)?
**A.** 0.961

**Q.** And the viability ([2]; 0.12 µM)?
**A.** 1.06

**Q.** And the viability ([2]; 0.6 µM)?
**A.** 1.05

**Q.** What about the viability ([2]; 3 µM) of the same compound?
**A.** 1.05

**Q.** And the viability ([2]; 15 µM)?
**A.** 1.09

**Q.** What about the viability ([3]; 0.024 µM) of the same compound?
**A.** 0.847

**Q.** What about the viability ([3]; 0.12 µM) of the same compound?
**A.** 0.645

**Q.** And the viability ([3]; 0.6 µM)?
**A.** 0.822

**Q.** And the viability ([3]; 3 µM)?
**A.** 0.973

**Q.** What about the viability ([3]; 15 µM) of the same compound?
**A.** 0.587

**Q.** And the viability ([4]; 0.024 µM)?
**A.** 0.833

**Q.** What about the viability ([4]; 0.12 µM) of the same compound?
**A.** 1.18

**Q.** And the viability ([4]; 0.6 µM)?
**A.** 0.846

**Q.** And the viability ([4]; 3 µM)?
**A.** 1.11

**Q.** And the viability ([4]; 15 µM)?
**A.** 0.835

**Q.** What about the viability ([5]; 0.024 µM) of the same compound?
**A.** 0.918

**Q.** What about the viability ([5]; 0.12 µM) of the same compound?
**A.** 0.958

**Q.** And the viability ([5]; 0.6 µM)?
**A.** 1.03

**Q.** What about the viability ([5]; 3 µM) of the same compound?
**A.** 0.99

**Q.** And the viability ([5]; 15 µM)?
**A.** 1.06

**Q.** What about the viability ([6]; 0.024 µM) of the same compound?
**A.** 0.955

**Q.** And the viability ([6]; 0.12 µM)?
**A.** 0.997

**Q.** What about the viability ([6]; 0.6 µM) of the same compound?
**A.** 1.02

**Q.** And the viability ([6]; 3 µM)?
**A.** 0.973

**Q.** And the viability ([6]; 15 µM)?
**A.** 0.948

**Q.** What about the viability ([7]; 0.024 µM) of the same compound?
**A.** 0.874

**Q.** And the viability ([7]; 0.12 µM)?
**A.** 1

**Q.** And the viability ([7]; 0.6 µM)?
**A.** 0.889

**Q.** What about the viability ([7]; 3 µM) of the same compound?
**A.** 0.894

**Q.** And the viability ([7]; 15 µM)?
**A.** 1.03

**Q.** And the viability ([8]; 0.024 µM)?
**A.** 0.919

**Q.** What about the viability ([8]; 0.12 µM) of the same compound?
**A.** 1.03

**Q.** And the viability ([8]; 0.6 µM)?
**A.** 1.03

**Q.** What about the viability ([8]; 3 µM) of the same compound?
**A.** 1.22

**Q.** And the viability ([8]; 15 µM)?
**A.** 1.66

**Q.** What about the viability ([9]; 0.024 µM) of the same compound?
**A.** 1.05

**Q.** And the viability ([9]; 0.12 µM)?
**A.** 1.01

**Q.** What about the viability ([9]; 0.6 µM) of the same compound?
**A.** 1.06

**Q.** And the viability ([9]; 3 µM)?
**A.** 0.999

**Q.** And the viability ([9]; 15 µM)?
**A.** 1

**Q.** What about the viability ([10]; 0.024 µM) of the same compound?
**A.** 0.988

**Q.** And the viability ([10]; 0.12 µM)?
**A.** 1.02

**Q.** And the viability ([10]; 0.6 µM)?
**A.** 1.06

**Q.** And the viability ([10]; 3 µM)?
**A.** 1.13

**Q.** What about the viability ([10]; 15 µM) of the same compound?
**A.** 0.813

**Q.** What about the viability ([11]; 0.024 µM) of the same compound?
**A.** 0.941

**Q.** What about the viability ([11]; 0.12 µM) of the same compound?
**A.** 1.07

**Q.** And the viability ([11]; 0.6 µM)?
**A.** 1.09

**Q.** And the viability ([11]; 3 µM)?
**A.** 1.29

**Q.** What about the viability ([11]; 15 µM) of the same compound?
**A.** 0.601

**Q.** What about the viability ([12]; 0.024 µM) of the same compound?
**A.** 0.929

**Q.** And the viability ([12]; 0.12 µM)?
**A.** 1.13

**Q.** And the viability ([12]; 0.6 µM)?
**A.** 1.34

**Q.** And the viability ([12]; 3 µM)?
**A.** 1.98

**Q.** And the viability ([12]; 15 µM)?
**A.** 1.46

**Q.** And the viability ([13]; 0.024 µM)?
**A.** 0.966

**Q.** What about the viability ([13]; 0.12 µM) of the same compound?
**A.** 1.02

**Q.** And the viability ([13]; 0.6 µM)?
**A.** 0.972

**Q.** What about the viability ([13]; 3 µM) of the same compound?
**A.** 0.875

**Q.** And the viability ([13]; 15 µM)?
**A.** 0.715

**Q.** What about the viability ([14]; 0.024 µM) of the same compound?
**A.** 0.995

**Q.** And the viability ([14]; 0.12 µM)?
**A.** 1.09

**Q.** And the viability ([14]; 0.6 µM)?
**A.** 1.07

**Q.** What about the viability ([14]; 3 µM) of the same compound?
**A.** 1.12

**Q.** What about the viability ([14]; 15 µM) of the same compound?
**A.** 0.888

**Q.** What does the source list for `CC(C)(C)C[C@@H]1N[C@@H](C(=O)N[C@H]2CC[C@H](O)CC2)[C@H](c2cccc(Cl)c2F)[C@]12C(=O)Nc1cc(Cl)ccc12` [MI-773]?
**A.** viability ([1]; 0.008 µM): 1.01; viability ([1]; 0.04 µM): 1.01; viability ([1]; 0.2 µM): 0.997; viability ([1]; 1 µM): 0.919; viability ([1]; 5 µM): 0.409; viability ([2]; 0.008 µM): 1.04; viability ([2]; 0.04 µM): 1.01; viability ([2]; 0.2 µM): 1.01; viability ([2]; 1 µM): 0.742; viability ([2]; 5 µM): 0.453; viability ([3]; 0.008 µM): 0.993; viability ([3]; 0.04 µM): 0.973; viability ([3]; 0.2 µM): 0.938; viability ([3]; 1 µM): 0.842; viability ([3]; 5 µM): 0.493; viability ([4]; 0.008 µM): 1.34; viability ([4]; 0.04 µM): 1.23; viability ([4]; 0.2 µM): 1.19; viability ([4]; 1 µM): 0.689; viability ([4]; 5 µM): 0.343; viability ([5]; 0.008 µM): 1; viability ([5]; 0.04 µM): 1.05; viability ([5]; 0.2 µM): 1.11; viability ([5]; 1 µM): 1.02; viability ([5]; 5 µM): 1.12; viability ([6]; 0.008 µM): 0.99; viability ([6]; 0.04 µM): 0.946; viability ([6]; 0.2 µM): 0.989; viability ([6]; 1 µM): 0.677; viability ([6]; 5 µM): 0.258; viability ([7]; 0.008 µM): 1.01; viability ([7]; 0.04 µM): 0.992; viability ([7]; 0.2 µM): 0.799; viability ([7]; 1 µM): 0.472; viability ([7]; 5 µM): 0.0627; viability ([8]; 0.008 µM): 1.08; viability ([8]; 0.04 µM): 0.944; viability ([8]; 0.2 µM): 0.986; viability ([8]; 1 µM): 0.854; viability ([8]; 5 µM): 0.68; viability ([9]; 0.008 µM): 1.02; viability ([9]; 0.04 µM): 0.934; viability ([9]; 0.2 µM): 0.957; viability ([9]; 1 µM): 0.947; viability ([9]; 5 µM): 0.722; viability ([10]; 0.008 µM): 1.12; viability ([10]; 0.04 µM): 0.901; viability ([10]; 0.2 µM): 0.818; viability ([10]; 1 µM): 0.421; viability ([10]; 5 µM): 0.202; viability ([11]; 0.008 µM): 0.994; viability ([11]; 0.04 µM): 0.926; viability ([11]; 0.2 µM): 0.688; viability ([11]; 1 µM): 0.413; viability ([11]; 5 µM): 0.253; viability ([12]; 0.008 µM): 0.979; viability ([12]; 0.04 µM): 0.781; viability ([12]; 0.2 µM): 0.587; viability ([12]; 1 µM): 0.428; viability ([12]; 5 µM): 0.321; viability ([13]; 0.008 µM): 0.937; viability ([13]; 0.04 µM): 0.938; viability ([13]; 0.2 µM): 0.7; viability ([13]; 1 µM): 0.465; viability ([13]; 5 µM): 0.218; viability ([14]; 0.008 µM): 1; viability ([14]; 0.04 µM): 0.966; viability ([14]; 0.2 µM): 0.648; viability ([14]; 1 µM): 0.46; viability ([14]; 5 µM): 0.215
